System: human abdominal skin
Test: In vitro human skin permeation and skin disposition, flow-through diffusion cells (Examples 2, 2A, 2B)
Type: in vitro ADME
Details: for Flux enhancement: total cannabidiol versus cannabidiol
Summary of the method: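 Dermatomed (~200 μm) frozen human abdominal skin was mounted in flow-through cells at 32° C (0.95 cm^2), stratum corneum to donor. Donors were 0.10 mL 45:4:1 PG:H2O:IPM solution or 50 μL gel; receiver was 40% PEG 400 (HEPES-Hanks pH 7.4 or aqueous) with gentamicin at 0.8 mL/h. Samples were taken every 3 h for 24-42 h; skin accumulation was expressed as μmol/g wet tissue.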

[1] = Table 19, gel formulation, 40% aqueous PEG 400 receiver fluid, as applied compound (CBD or intact prodrug)
[2] = Table 19, gel formulation, 40% aqueous PEG 400 receiver fluid, mono-prodrug (ALL00150) from applied di-prodrug
[3] = Table 19, gel formulation, 40% aqueous PEG 400 receiver fluid, prodrug applied, as total cannabidiol equivalents
[4] = Table 16, 90:8:2 PG:H2O:IPM donor solution, 60/40 Hanks'/PEG 400 receiver fluid, as applied compound (CBD or intact prodrug)
[5] = Table 17, 90:8:2 PG:H2O:IPM donor solution, 40% aqueous PEG 400 receiver fluid, as applied compound (CBD or intact prodrug)
[6] = Table 18, 90:8:2 PG:H2O:IPM donor solution, 40% aqueous PEG 400 receiver fluid, as applied compound (CBD or intact prodrug)
[7] = Table 21, gel formulation, 40% aqueous PEG 400 receiver fluid, as applied compound (CBD or intact prodrug)
[8] = Table 23, gel formulation, 40% aqueous PEG 400 receiver fluid, as applied compound (CBD or intact prodrug)
[9] = Table 18, 90:8:2 PG:H2O:IPM donor solution, 40% aqueous PEG 400 receiver fluid, CBD from applied prodrug
[10] = Table 18, 90:8:2 PG:H2O:IPM donor solution, 40% aqueous PEG 400 receiver fluid, mono-prodrug from applied di-prodrug
[11] = Table 18, 90:8:2 PG:H2O:IPM donor solution, 40% aqueous PEG 400 receiver fluid, prodrug applied, as total cannabidiol equivalents

C=C(C)[C@@H]1CCC(C)=C[C@H]1c1c(OC(=O)CCN(C)C)cc(CCCCC)cc1OC(=O)CCN(C)C [ALL00101, CBD bis(3-(dimethylamino)propionate)]
24 h skin conc (Table 19, gel formulation, 40% aqueous PEG 400 receiver fluid, CBD from applied prodrug): 13.2 ± 10.4 µmol/g | 24 h skin conc [1]: 0.8 ± 0.6 µmol/g | 24 h cumulative amt [2]: 8.4 ± 1.3 nmol | 24 h skin conc [2]: 34.7 ± 27.7 µmol/g | Flux [2]: 0.4 ± 0.03 nmol/cm^2/h | Lag time [2]: 2.9 ± 1.9 h | 24 h cumulative amt [3]: 8.4 ± 1.3 nmol | 24 h skin conc [3]: 48.7 ± 38.6 µmol/g | Flux [3]: 0.4 ± 0.03 nmol/cm^2/h | Lag time [3]: 2.9 ± 1.9 h | Flux enhancement (Table 19, gel formulation, 40% aqueous PEG 400 receiver fluid): 0.52 | detected in the skin as (in gel formulation): trace small amounts of intact prodrug but mostly as mono-substituted prodrug, ALL00150, and cannabidiol | flux compared to cannabidiol (in gel formulation): did not increase the flux | lag time compared to cannabidiol (in gel formulation): decreased | permeated through the skin as (in gel formulation): mono-substituted prodrug (ALL00150) only | total skin concentrations compared to cannabidiol (in gel formulation): higher

C=C(C)[C@@H]1CCC(C)=C[C@H]1c1c(O)cc(CCCCC)cc1O [cannabidiol, reference compound]
42 h cumulative amt [4]: 154.4 ± 39.5 nmol | 42 h skin conc [4]: 19.0 ± 12.8 µmol/g | Flux [4]: 6.5 ± 0.7 nmol/cm^2/h | 30 h cumulative amt [5]: 51.6 ± 9.1 nmol | 30 h skin conc [5]: 10.5 ± 6.5 µmol/g | Flux [5]: 3.9 ± 0.2 nmol/cm^2/h | 30 h cumulative amt [6]: 148.6 ± 54.0 nmol | 30 h skin conc [6]: 21.2 ± 4.8 µmol/g | Flux [6]: 8.2 ± 2.6 nmol/cm^2/h | 24 h cumulative amt [1]: 12.3 ± 8.1 nmol | 24 h skin conc [1]: 9.0 ± 2.2 µmol/g | Flux [1]: 0.8 ± 0.4 nmol/cm^2/h | Lag time [1]: 8.5 ± 2.1 h | 24 h cumulative amt [7]: 6.5 ± 3.8 nmol | 24 h skin conc [7]: 15.6 ± 4.2 µmol/g | Flux [7]: 0.4 ± 0.2 nmol/cm^2/h | Lag time [7]: 5.3 ± 1.7 h | 24 h skin conc (Table 22, anhydrous gel formulation, 40% aqueous PEG 400 receiver fluid, as applied compound (CBD or intact prodrug)): 3.3 ± 1.3 µmol/g | 24 h cumulative amt [8]: 3.0 nmol | 24 h skin conc [8]: 27.7 ± 24.6 µmol/g | Flux [8]: 0.29 nmol/cm^2/h | Lag time [8]: 12.8 h | concentrations in the skin, anhydrous gel formulation compared to the ethanol based gel formulation (anhydrous gel versus ethanol based gel): much lower

C=C(C)C1CCC(C)=CC1c1c(OC(=O)CN(C)C)cc(CCCCC)cc1OC(=O)CN(C)C (stereo not drawn) [ALL00105, CBD bis(N,N-dimethylglycinate)]
30 h cumulative amt [9]: 6.9 ± 0.0 nmol | 30 h skin conc [9]: 30.0 ± 0.0 µmol/g | Flux [9]: 0.6 ± 0.0 nmol/cm^2/h | Lag time [9]: 18.6 ± 0.0 h | 30 h cumulative amt [10]: 15.4 ± 0.0 nmol | 30 h skin conc [10]: 40.2 ± 0.0 µmol/g | Flux [10]: 1.0 ± 0.0 nmol/cm^2/h | Lag time [10]: 13.0 ± 0.0 h | 30 h cumulative amt [11]: 22.3 ± 0.0 nmol | 30 h skin conc [11]: 70.2 ± 0.0 µmol/g | Flux [11]: 1.6 ± 0.0 nmol/cm^2/h | Lag time [11]: 15.2 ± 0.0 h | Flux enhancement (Table 18, 90:8:2 PG:H2O:IPM donor solution, 40% aqueous PEG 400 receiver fluid): 0.19 | detected in the skin as (in donor solution): mono-substituted prodrug, ALL00148, and cannabidiol | flux compared to cannabidiol (in donor solution): did not increase the flux | lag time compared to cannabidiol (in donor solution): not decreased | permeated through the skin as (in donor solution): mono-substituted prodrug (ALL00148) and cannabidiol | total skin concentrations compared to cannabidiol (in donor solution): higher
